US20250179057A1, “MEK IMMUNE ONCOLOGY INHIBITORS AND THERAPEUTIC USES THEREOF” (Immuneering Corporation, priority 2022, published 2025)
Converted amounts (≈) assume the structure as drawn.

Tests used:
in vitro = conditions: human
hERG = hERG (Homo sapiens, UniProt Q12809); experiment: cell-based
Method: Materials and Methods: CHO cells (transformed with adenovirus 5 DNA; Stably transfected with full length hERG cDNA) were cultured in Ham's F-12 supplemented with 10% fetal bovine serum, 100 U/mL penicillin G sodium, 100 μg/mL streptomycin sulfate and 400 μg/mL Zeocin. Before testing, cells in culture dishes were rinsed with Hank's Balanced Salt Solution, detached with accutase.
HEPES-buffered intracellular solution (Charles River proprietary) for whole cell recordings was loaded into the intracellular compartment of the SP384PE. Extracellular buffer (HB-PS) and Cell suspension (in HB-PS) were pipetted into the extracellular compartment of the SP384PE chip. After establishment of a whole-cell configuration, membrane currents were recorded using patch clamp amplifier in the SP384PE system.
Test article (TA) concentrations (eight (8) concentrations of each test article were evaluated) were applied to naïve cells (n=4, where n=replicates/concentration). Each application consisted of addition of 40 μL of 2× concentrated test article solution to the total 80 μL of final volume of the extracellular well of the SP384PE chip. Duration of exposure to each compound concentration was five (5) minutes.
hERG current was measured using stimulus voltage patterns with fixed amplitudes: activation pre-pulse (TP1) to +40 mV for 2 s and test pulse (TP2) to −40 mV for 2 s from a holding potential of −80 mV. hERG current was measured as the outward peak current at TP2 (tail current). The stimulation was repeated with 0.1 Hz frequency during 2 min as baseline and 5 min after TA application.
Data acquisition and analyses were performed using the SP384PE system operation software. The decrease in current amplitude after TA application was used to calculate the percent block relative to control.
Tonic Block effect was calculated as:
[formula] • where ITP2, baseline and ITP2, TA were the outward peak K^+ currents elicited by the TP2 before application and 5 min after application of a test article, respectively.
The data were corrected for run-down:
[formula] • where % VC and % PC were the mean values of the current block with the vehicle and positive controls, respectively.
Concentration-response data were fitted to an equation of the following form:
[formula] • where [Test] was the concentration of test article, IC50 was the concentration of the test article producing half-maximal block, N was the Hill coefficient, % VC was the mean current block at the vehicle control and % Block was the percentage of ion channel current inhibited at each concentration of a test article. Nonlinear least squares fits were solved with the XLfit add-in for Excel (Microsoft, Redmond, WA).
In this study, hERG Ion channel block of IC50 values were determined. […] In brief, CHO cells were cultured in Ham's F-12 supplemented with 10% fetal bovine serum, 100 U/mL penicillin G sodium, 100 μg/mL streptomycin sulfate and 400 μg/mL Zeocin. Before testing, cells in culture dishes were rinsed with Hank's Balanced Salt Solution, detached with accutase. […] Test article (TA) concentrations were applied to naïve cells (n=4, where n=replicates/concentration). Each application consisted of addition of 40 μL of 2× concentrated test article solution to the total 80 μL of final volume of the extracellular well of the SP384PE chip. Duration of exposure to each compound concentration was five (5) minutes. hERG current was measured using stimulus voltage patterns with fixed amplitudes: activation pre-pulse (TP1) to +40 mV for 2 s and test pulse (TP2) to −40 mV for 2 s from a holding potential of −80 mV. hERG current was measured as the outward peak current at TP2 (tail current). The stimulation was repeated with 0.1 Hz frequency during 2 min as baseline and 5 min after TA application. Data acquisition and analyses were performed using the SP384PE system operation software.

[1] = tested on: phospho-ERK in A549 (KRAS G12S) cells; experiment: Cell-based pERK (pERK:tERK) in A549 cells; conditions: for activity at 0.01 µM: Homo sapiens, A549, 2 h, read-out: A549-pERK (10 nM, 2 h); for A549-pERK (10 nM, 2 h): phospho- to total protein ratio normalized to DMSO control (Table 9)
Outline: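 Readout was pERK versus tERK by Western blot with IRDye-labelled secondary antibodies, imaged and quantified on a LI-COR Odyssey. Lysates were loaded at 1 mg/mL protein after Bradford estimation.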

PAMPA (pH 7.4) = assay type: in vitro ADME; conditions: PAMPA; pH = 7.4 (Table 14)
Method: Each stock solution was diluted to 50 M in pH 7.4 Prisma HT buffer (pION) and 200 μl was added to each well of the donor plate in triplicate. The polyvinylidene fluoride (PVDF, 0.45 μm) filter membrane on the acceptor plate was coated with 5 μl gastrointestinal tract lipid formulation (GIT-0, pION) and to each well of the acceptor plate, 200 μl of acceptor sink buffer (pION) was added. The acceptor filter plate was then carefully placed on top of the donor plate to form a sandwich. The sandwich was incubated at 25° C. for 4 h without stirring. UV-vis spectra of the solutions in the blank, reference, acceptor and donor plates were measured using a microplate reader (Tecan Infinite 200PRO M Nano Plus). Permeability values were calculated using the PAMPA explorer software v.

[2] = Kinetic solubility (PBS pH 7.4; 4 hr); assay type: physicochemical; conditions: free base (Table 19); read-out: Kinetic Solubility
Method: The plates were shaken for 4 h at room temperature in an Eppendorf Thermomixer. After incubation, the plates were centrifuged for 20 minutes at 4680 rpm. From the supernatant, 150 μL was transferred to a new 96 well plate and 50 μL DMSO was added to ensure continued dissolution. Samples were measured on LC-UV at injection volumes of 1 and 8 μL. Peak areas were determined and compared to peak areas obtained using calibration curves of the test compounds in DMSO.

[3] = Mouse pharmacokinetics (oral cassette dosing), plasma; assay type: in vivo; conditions: BALB/c immunocompetent mice, 5 mg/kg p.o.
Method: Female mice (BALC/c) received a single dose (3 mice/treatment) of vehicle (10% 1N HCl:90% [20% […]) and at 0.5, 1, 2, 4, 8, 12 and 24-hour post dose humanely euthanized.
Blood was obtained through cardiac puncture into K+EDTA tubes, mixed by inversion and centrifuged to obtain the plasma. Blood will be kept on ice or at approximately 4° C. prior. Centrifugation will take place within 30 minutes of blood collection affording plasma samples. Plasma samples will be frozen as soon as possible after centrifugation and stored at −80° C. until analysis. All samples will be analysed by means of LC-MS/MS. Method development for bioanalysis will be performed by pharmacokinetics Department of Crown Bioscience (Taicang) Inc. using LC-MS/MS analysis (using Waters HSS T3 2.1×50 mm (1.8 um) LC column, and an API-4000 Electrospray MS unit). The results of a kinetic solubility (free base) study are represented in Table 19.

[4] = tested on: phospho-MEK in A549 cells; experiment: Cell-based pMEK (pMEK:tMEK, CRAF bypass) in A549 cells; conditions: 2 h; for A549-pMEK 100 nM, 2 h: normalized to DMSO control (Table 13)
Method: Materials and Methods: A549 or A375 cells were seeded in 6-well plates at an appropriate seeding density on day 0. On day 2 or 3, after checking the health and confluency of cells, the media was aspirated and replaced with 1 mL media containing a predetermined concentration of compound and incubated for 2 hours. After 2 hours, the media was aspirated, and the cells washed 2 times with cold PBS. Cells were lysed on ice, with 50 uL 1×CST lysis buffer +1 mM PMSF for 5 minutes. After 5 minutes, cells were removed using a scraper and transferred to cold 1.5 mL tubes, and centrifuged for 10 min, 4° C., 14,000×g. Supernatant was gently removed and snap frozen in liquid nitrogen. Protein concentration of the lysate was determined using Bradford Reagent (analyzed using SpectraMax M2E) and diluted to 1 mg/mL or pERK or 1.5 mg/mL for pMEK analysis. […] All dilutions were in Milk-free antibody diluent.
(§1) A549 or […] cells were treated in duplicate for two hours with compounds at varying concentrations. After two hours, the cells were lysed, snap frozen, and stored at −80° C. After storage, the lysate was quantified with the Bradford assay. Before the lysates were prepared to run on the Jess, the lysates were diluted to 1 mg/mL for pERK analysis and 1.5 mg/mL pMEK analysis using quantitative Western blotting. ERK and MEK phosphorylation levels were estimated by taking the ratio of phospho-protein to total protein and normalizing to the DMSO control.
as §1

Sequence of hERG (Q12809 whole entry): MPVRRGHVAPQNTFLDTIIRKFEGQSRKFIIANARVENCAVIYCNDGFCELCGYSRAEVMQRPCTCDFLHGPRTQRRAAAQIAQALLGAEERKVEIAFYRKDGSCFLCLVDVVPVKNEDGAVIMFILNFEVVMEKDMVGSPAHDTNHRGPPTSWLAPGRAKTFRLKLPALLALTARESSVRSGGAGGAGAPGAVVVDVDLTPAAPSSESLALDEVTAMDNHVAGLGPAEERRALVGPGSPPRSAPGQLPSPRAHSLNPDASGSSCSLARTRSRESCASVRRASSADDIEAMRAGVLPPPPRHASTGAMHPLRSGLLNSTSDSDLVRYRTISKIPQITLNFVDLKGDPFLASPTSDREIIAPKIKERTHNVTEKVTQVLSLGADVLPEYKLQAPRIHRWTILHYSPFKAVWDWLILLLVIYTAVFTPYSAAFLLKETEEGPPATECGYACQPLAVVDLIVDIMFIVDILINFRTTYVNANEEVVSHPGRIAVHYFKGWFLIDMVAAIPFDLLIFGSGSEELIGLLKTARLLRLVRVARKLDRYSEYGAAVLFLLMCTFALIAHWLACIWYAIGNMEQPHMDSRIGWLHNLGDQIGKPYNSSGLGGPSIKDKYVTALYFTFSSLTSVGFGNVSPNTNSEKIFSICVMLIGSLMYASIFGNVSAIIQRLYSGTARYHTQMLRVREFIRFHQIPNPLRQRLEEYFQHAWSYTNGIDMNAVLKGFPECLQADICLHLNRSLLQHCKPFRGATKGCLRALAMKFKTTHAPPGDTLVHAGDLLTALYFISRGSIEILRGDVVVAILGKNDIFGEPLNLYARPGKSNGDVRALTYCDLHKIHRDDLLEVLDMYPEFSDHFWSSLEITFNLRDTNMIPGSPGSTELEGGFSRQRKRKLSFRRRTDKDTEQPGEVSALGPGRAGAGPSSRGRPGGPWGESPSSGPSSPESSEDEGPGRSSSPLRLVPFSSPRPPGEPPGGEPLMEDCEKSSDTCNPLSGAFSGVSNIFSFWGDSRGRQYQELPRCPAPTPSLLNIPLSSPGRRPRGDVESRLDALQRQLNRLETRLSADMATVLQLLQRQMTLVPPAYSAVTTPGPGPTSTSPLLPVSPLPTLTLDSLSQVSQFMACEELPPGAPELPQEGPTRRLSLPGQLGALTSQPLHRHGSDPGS

| SMILES | activity at 0.01 µM [1] [%] | Papp at 4 h, 50 μM (PAMPA (pH 7.4)) [×10⁻⁶ cm/s] | A549-pERK (10 nM, 2 h) [1] | solubility kinetic at 4 h [2] [µM] | AUC(0-t) [3] [ng·h/mL] | Cmax [3] [ng/mL] | Tmax [3] [h] | A549-pMEK 100 nM, 2 h [4] | also measured |
| --- | --- | --- | --- | --- | --- | --- | --- | --- | --- |
| CC(=O)CC(c1ccccc1)c1c(O)c2ccccc2oc1=O (centres unmarked) [Warfarin] |  |  |  |  |  |  |  |  | A − B Permeability Ranking (Caco-2 cells): Higher; A-B Permeability Ranking (Caco-2 cells): High; efflux ratio at 2 h, 10 μM (in vitro; Caco-2, Mean (B-A/A-B) (Efflux Ratio)): 0.726; efflux ratio at 2 h, 10 μM (in vitro; Caco-2, Mean Efflux Ratio): 0.513; Papp A→B at 2 h, 10 μM (in vitro; Caco-2, Mean Papp A − B (10^−6 cm/s)): 40.5 ×10⁻⁶ cm/s; Papp A→B at 2 h, 10 μM (in vitro; Caco-2, Mean Papp A-B (10^-6 cm/s)): 36.6 ×10⁻⁶ cm/s; Papp B→A at 2 h, 10 μM (in vitro; Caco-2, Mean Papp B − A (10^−6 cm/s)): 20.8 ×10⁻⁶ cm/s; Papp B→A at 2 h, 10 μM (in vitro; Caco-2, Mean Papp B-A (10^-6 cm/s)): 26.6 ×10⁻⁶ cm/s |
| CNS(=O)(=O)Nc1cccc(Cc2c(CN3CCNCC3)c3cc(F)c(OC(=O)N(C)C)cc3oc2=O)c1Cl [Compound 254, 3-(2-chloro-3-((N-methylsulfamoyl)amino)benzyl)-6-fluoro-2-oxo-4-(piperazin-1-ylmethyl)-2H-chromen-7-yl dimethylcarbamate] | 26.8 | 2 |  |  |  |  |  |  | IC50 (hERG): > 30 µM; pERK:tERK (10 nM 2 h A549) ([1]; Phospho-ERK Screen in A549 (KRAS G12S), head 10 nM 2 h, title 10 μM for 2 hours): 27 |
| CCN(C)Cc1c(Cc2cccc(NS(=O)(=O)CC)c2F)c(=O)oc2cc(OC(=O)N(C)C)c(Cl)cc12 [Compound 166] |  |  | 60.9 | 80 (≈ 44.3 µg/mL) | 11.8 | 9.1 | 2 |  |  |
| CNS(=O)(=O)Nc1cccc(Cc2c(CN(C)C)c3cc(Cl)c(OC(=O)N(C)C)cc3oc2=O)c1F [Compound 24] |  |  | 42.4 | 57 (≈ 30.8 µg/mL) | 850.1 | 422.7 | 1 |  | A549-CRAF BP 100 nM, 2 h ([4]; pMEK to total MEK normalized to DMSO control): 55.9 (mean, n = 2) |
| CNS(=O)(=O)Nc1cccc(Cc2c(CN(C)CC(F)F)c3ccc(OC(=O)N(C)C)cc3oc2=O)c1F [Compound 242] | 69.7 | 72 |  |  |  |  |  | 33.2 |  |
| CNS(=O)(=O)Nc1cccc(Cc2c(CN(C)C)c3c(F)cc(OC(=O)N(C)C)cc3oc2=O)c1F [Compound 244, 4-((dimethylamino)methyl)-5-fluoro-3-(2-fluoro-3-((N-methylsulfamoyl)amino)benzyl)-2-oxo-2H-chromen-7-yl dimethylcarbamate] | 44.7 | 8 |  |  |  |  |  | 26.1 |  |
